Test results: US20260355180A1, “COMPOSITIONS AND METHODS FOR SPLICEOSOME-TARGETED THERAPIES” (Institute for Cancer Research d/b/a The Research Institute …, priority 2022, published 2026)
“Also recorded” adds a separate entry of the source.

What was measured:
[1] = tested on: MEF RA cells; assay: pMLKL western blot / necroptosis, MEF RHIM-A mutant (RA); format: cell-based, mouse; conditions: 2.5 nM PlaB, 18 hours
Procedure: FIG. 5A-5E: SF3B1 perturbation upregulates A-RNA and Z-nucleic acids in MEFs. (FIG. 5A) 5 nM of PlaB induces A-RNA and Z-Nucleic acids in ΔZBP1 MEF cells. (FIG. 5B) Quantification of A-RNA and Z-Nucleic acids. […] Plots of signal intensity are mean±SEM, two-tailed unpaired Student's t test *p<0.05, ***p<0.001, ****p<0.0001. 18 hours of PlaB treatment for IF, WB and rescue experiments. IF: 5 nM PlaB, WB and rescue experiments: 2.5 nM PlaB.
Since induction of Z-nAs can result in ZBP1-dependent necroptosis, we analyzed induction of necroptosis in necroptotic competent MEFs using spliceosome inhibition. […] We also determined that MEFs ΔZBP1, WT, and Flag-ZBP1 cells treated with PlaB began dying within 24hours after treatment. With MEF Flag-ZBP1 cells showing only 20% survival after 24 hours (FIG. 16).

[2] = tested on: H82 SCLC cells; assay: Cell survival after PlaB treatment, H82; format: cell-based
Procedure: FIG. 2A) SCLC cell lines (H446 and H82) and immortalized fibroblasts (FC1010 and HS68) cell survival curves after 72 hours of PlaB treatment. FIG. 2B) RIPK1 depletion rescues H82 and H446 cell survival after 18 hours of PlaB treatment. FIG. 2C) Western blot showing RIPK1 protein depletion. Mean±SEM, Welch's t test *p<0.05, **p<0.01.
Cancer deregulates splicing^31,32, and we hypothesized that hyper-proliferative SCLCs are dependent on splicing machineries for increased tumorigenicity^90.

[3] = tested on: RPP631 cells in mice; assay: Combination therapy with PlaB and αPD-1 in mice, tumor size; format: in vivo; conditions: PlaB intra-tumorally and αPD-1 intra-peritoneally, days 14, 17, 20, 22; vs IgG or anti-PD1 only; 24 days
Procedure: FIG. 17: Analysis of combination therapy in mouse model using PlaB and αPD-1.
This combination therapy was tested in RPP631 cells in mice. At day 0, the mice were injected with 8×10^6 RPP631 cells. At days 14, 17, 20, and 22, the mice were injected with PlaB or a vehicle intra-tumorally and IgG or αPD-1 intra-peritoneally. The tumors were then measured over 24 days. (FIG. 17).

[4] = tested on: SCLC cell lines; assay: Western blot of cleaved-PARP, pH2AX, ZBP1 and RIPK1 (FIG. 4C); format: cell-based; conditions: 48 hours of PlaB
Excerpt: FIG. 4A-4C: SF3B1 perturbation increases dsRNA and Z-nucleic acid levels in treated cells. […] (FIG. 4B) Quantification of A-RNA and Z-Nucleic acids. (FIG. 4C) Western blot showing induction of cleaved-PARP, pH2AX, and ZBP1, and the reduction of RIPK1 protein levels. Plots of signal intensity are mean±SEM, two-tailed unpaired Student's t test **p<0.01, ****p<0.0001.

[5] = tested on: MEF cells; assay: A-RNA and Z-NA in MEF after PlaB with or without nucleases; format: cell-based, mouse
Procedure: FIG. 11A-11B: Analysis of Z-NA and A-RNA sources. (FIG. 11A) […] A-Nucleic acid accumulation in MEF cells after treatment with PlaB with or without Dnasel, RnaseA, or Rnase H. (FIG. 11B) Quantification of A-RNA and Z-Nucleic acids in treated cells. MEF EV refers to MEF cells treated with an empty vector.
The increases in A-RNA and Z-NA was further analyzed in MEF cells. Cells were treated with PlaB alone, or in combination with dNasel (dsDNA), rNaseA(dsRNA at [high]), or […] (DNA/RNA hybrid). […] (FIG. 11A-11B).

[6] = PlaB and dNasel, rNaseA, or RnaseH

For `CCC(O)C(C)C1OC1CC(C)C=CC=C(C)C1OC(=O)CC(O)CCC(C)(O)C(OC(C)=O)C=CC1C` (stereo not drawn) [PlaB, Pladienolide B], the “pMLKL (necroptosis)” value ([1]; MEF RA) was “not triggered”, the PlaB-mediated necroptosis ([1]; MEF RHIM-A mutant) was “avoid PlaB-mediated necroptosis” and the cell survival ([2]; 72 hours of PlaB, H82) was “drastically reduces cell survival; also recorded: dramatically reduces SCLC cell survival”. For the same compound, the “sensitivity to SF3B1 inhibition” value ([2]; nanomolar concentration of PlaB) was “particularly sensitive”, the tumor size [3] was “significantly reduced tumor size” and the RIPK1 protein level [4] was “dropped considerably”. The ZBP1 protein [4] was “increased; also recorded: slight increase”, the cleaved-PARP protein [4] was “increased” and the pH2AX protein [4] was “increased”. The “A-RNAs and Z-nAs” value ([5]; PlaB alone) was “increase in both A-RNAs and Z-nAs”, the “A-RNAs and Z-nAs” value [5, 6] was “still showed an increase in A-RNAs and Z-nAs” and the “increase in A-RNAs relative to PlaB alone” value [5, 6] was “not as robust as PlaB alone”.
